# Results taken from patent US9855338B2, “Polyglutamate-amino acid conjugates and methods” (priority 2005, dated 2018).
# Like-named read-outs stand apart in the source and are kept apart here.
# Tests used:
# [1] = test system: B16F0 melanoma cells; assay: In vitro cellular uptake, fluorescence microscopy; type: cell-based, murine
# Procedure: B16F0 cells were purchased from ATCC (CRL-6322, ATCC American Type Culture Collection, Rockville, Md.) and were grown in Dulbecco's modified Eagle's medium (DMEM) with 10% fetal bovine serum and 100 units/mL penicillin. The cells were grown at 37° C. in 5% CO2 environment. The culture medium was removed and discarded. The cells were rinsed with Dulbecco Phosphate Buffer Solution (DPBS), Trypsin-ethylenediaminetetra-acetic acid (EDTA) solution (0.5 ml) was added, and the cells were observed under an inverted microscope to make sure that they were dispersed. Complete growth medium (6.0 to 8.0 ml) was added, and the cells were aspirated by gently pipetting. The cell suspension in appropriate aliquots was transferred to new culture plates. […]
# PGA-97-A-Texas Red and Texas Red dye (TR) were separately dissolved in DPBS. […] The treated cells were examined under an OLYMPUS fluorescence microscope, and the excitation and emission wavelengths were measured at 591 and 612 nm, respectively.
# Three sample containers containing approximately the same number of B16F0 melanoma cells were incubated with PGA-97-A-Texas Red at 1 μM, PGA-97-A-Texas Red at 0.1 μM, and Texas Red alone at 10 μM, respectively, for 24 hours. Photographs of the in vitro cellular uptake of each container were taken with the camera on an Olympus fluorescence microscope system. […]
# [2] = test system: murine melanoma cells (B16F0) tumor; assay: In vivo tumor tissue uptake, syngeneic tumor model, cryostat sections; details: 24 hours after intravenous administration, nu/nu mice
# Procedure: Animals: Nu/nu mice, female, 6-8 weeks (22-25 g). Solitary tumors were produced by injecting 2×10^5 murine melanoma cells (B16F0) to the right thigh subcutaneously. 5-7 days later when the tumor reached about 500 mm^3, the PGA-97-A-Texas Red or Texas Red dye was injected intravenously to the tumor.
# PGA-97-A-Texas Red and Texas Red were separately dissolved in DPBS and were filtrated through a 0.2 μm filter before being administrated to the animals. 100 μl of PGA-97-A-Texas Red (TR loading at 2.5%) or Texas Red at 0.1-10 mM was intravenously injected to the tumor using the syngeneic tumor model in Example 19. Tumors were dissected, embedded under optimal cutting temperature and frozen in liquid nitrogen. Cryostat sections (6-15 μm) were made and were fixed with 4% paraformaldehyde with 0.03M of sucrose on ice for 10-30 min. The sections were washed 2 times with DPBS, stained with Hoechst 33342 (1 μg/ml) for 10 minutes, and washed again with DPBS. The sections were then mounted with a fluorescent mounting medium (DakoCytomation) and covered with a coverslip. The cryostat sections of the tumor were observed under laser scan confocal microscopy.
# Photographs of the cryostat cross-section of in vivo tumor tissue uptake of PGA-97-A-Texas Red and Texas Red dye alone were taken. For each, three different cross-sections were taken for a total of six images. […]
# [3] = Procedure: Each polymer (5 mg) was added into a pH buffer (1 mL) and the mixture was sonificated for 2 minutes. Then the mixture was allowed to settle at room temperature for 30 minutes. Solubility was observed by eye and recorded on the scale of 1 to 10, where 1 is highly insoluble, 5 is a cloudy suspension, and 10 is a highly clear solution.
Solubility ([3]; pH 2),Solubility ([3]; pH 3),Solubility ([3]; pH 4),Solubility ([3]; pH 5),Solubility ([3]; pH 6),Solubility ([3]; pH 7),Solubility ([3]; pH 7.4),Substance,"cellular uptake of Texas red dye ([1]; 0.1 μM to 10 μM, 8-24 hours, fluorescence microscope)","cells that were red (cellular uptake of dye) ([1]; 10 μM, 24 hours, B16F0 melanoma cells) [%]",accumulation of Texas red dye in tumor cells in vivo [2]
,,,,,,,Texas Red,not,0,not
10,10,10,10,10,10,10,"Poly-(γ-glutamyl)-poly-L-glutamine [PGPG-19,800]",,,
